In US20230086702A1, “SUBSTITUTED 2-AMINO-PYRAZOLYL-[1,2,4]TRIAZOLO[1,5A]PYRIDINE DERIVATIVES AND USE THEREOF” (The Johns Hopkins University, priority 2019, published 2023):

Tests used:
DLK = molecular target: T1, DLK (Homo sapiens, UniProt Q12852); assay: DLK biochemical assay (TR-FRET, MKK7 phosphorylation)
T1 construct: 10 nM DLK, catalytic domain, Carna Biosiences; purchased Carna Biosciences ('Carna Biosiences' [sic])
T1 sequence (Q12852 125-366 limits assumed): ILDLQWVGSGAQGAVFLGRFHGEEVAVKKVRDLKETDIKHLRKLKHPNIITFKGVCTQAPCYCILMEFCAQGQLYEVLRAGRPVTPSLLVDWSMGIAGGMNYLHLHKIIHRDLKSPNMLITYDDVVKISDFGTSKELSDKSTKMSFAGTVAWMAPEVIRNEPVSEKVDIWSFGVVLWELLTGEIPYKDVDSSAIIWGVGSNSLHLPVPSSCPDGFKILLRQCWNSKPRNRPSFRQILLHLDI
Procedure, shortened: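 TR-FRET read-out (665/Eu ratio) of MKK7 T275/S277 phosphorylation, with inhibition lowering the signal. Final conditions: 10 nM DLK catalytic domain, 15 nM MKK7, 60 μM ATP, 90 min at RT. Detection incubation 16 h at 37° C in 1536-well or 4° C in 384-well format.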

LZK = molecular target: T2, LZK (Homo sapiens, UniProt O43283); assay: LZK biochemical assay (TR-FRET, MKK7 phosphorylation)
T2 construct: 10 nM LZK, catalytic domain, Carna Biosiences in assay buffer; purchased Carna Biosciences ('Carna Biosiences' [sic])
T2 sequence (O43283 168-409 limits assumed): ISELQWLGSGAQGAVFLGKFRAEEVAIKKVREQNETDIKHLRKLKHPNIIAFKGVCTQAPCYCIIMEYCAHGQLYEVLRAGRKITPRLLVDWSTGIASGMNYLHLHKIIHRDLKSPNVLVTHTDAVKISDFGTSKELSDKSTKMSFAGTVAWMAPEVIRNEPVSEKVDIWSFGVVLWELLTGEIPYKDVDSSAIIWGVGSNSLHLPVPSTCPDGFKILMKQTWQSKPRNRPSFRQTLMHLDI
Procedure, shortened: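 Read-out is HTRF: Eu-labelled anti-phospho-MKK7 (T275/S277) and XL665 anti-His, incubated 16 h at 32 °C, with a drop in signal marking inhibition. Reaction beforehand: 10 nM LZK kinase domain, 15 nM His-MKK7, 15 µM ATP (final) for 90 min at room temperature, pH 7.5.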

An IC50 (DLK) of 92 nM and an IC50 (LZK) of 190 nM were found for CC(C)C(c1ccc(C(F)(F)F)nc1)n1cc(-c2cc(-c3ccc(C4CC4)nc3)n3nc(N)nc3c2)cn1 (single isomer, unassigned) [II-59, 5-(6-Cyclopropylpyridin-3-yl)-7-(1-{2-methyl-1-[6-(trifluoromethyl)pyridin-3-yl]propyl}-1H-pyrazol-4-yl)[1,2,4]triazolo[1,5-a]pyridin-2-amine] in this work.
An IC50 (DLK) of 7.5 nM and an IC50 (LZK) of 11 nM were found for CC(C)C(c1ccc(C(F)(F)F)nc1)n1cc(-c2cc(-c3ccc(OC4CC4)nc3)n3nc(N)nc3c2)cn1 (racemic) [II-48, 5-[6-(Cyclopropyloxy)pyridin-3-yl]-7-(1-{2-methyl-1-[6-(trifluoromethyl)pyridin-3-yl]propyl}-1H-pyrazol-4-yl)[1,2,4]triazolo[1,5-a]pyridin-2-amine] in this work.
An IC50 (DLK) of 3.4 nM and an IC50 (LZK) of 48 nM were found for COc1cc(C(C(C)C)n2cc(-c3cc(-c4cnn(CC(F)(F)F)c4)n4nc(N)nc4c3)cn2)ccn1 (stereo not drawn) [II-136] in this work.
An IC50 (DLK) of 2.2 nM and an IC50 (LZK) of 9.7 nM were found for CCC(c1ccc(C(F)(F)F)nc1)n1cc(-c2cc(-c3cnn(CC(F)F)c3)c3nc(N)nn3c2)cn1 (single isomer, unassigned) [II-110, 8-[1-(2,2-Difluoroethyl)-1H-pyrazol-4-yl]-6-(1-{1-[6-(trifluoromethyl)pyridin-3-yl]propyl}-1H-pyrazol-4-yl)[1,2,4]triazolo[1,5-a]pyridin-2-amine] in this work.
An IC50 (DLK) of 3.6 nM and an IC50 (LZK) of 17 nM were found for Nc1nc2cc(-c3cnn(C(c4ccc(C(F)(F)F)nc4)C4CCOCC4)c3)cc(-c3cn(CC(F)(F)F)c(=O)cn3)n2n1 (racemic) [II-194, 5-[2-Amino-7-(1-{tetrahydro-2H-pyran-4-yl[6-(trifluoromethyl)pyridin-3-yl]methyl}-1H-pyrazol-4-yl)[1,2,4]triazolo[1,5-a]pyridin-5-yl]-1-(2,2,2-trifluoroethyl)pyrazin-2(1H)-one] in this work.
An IC50 (DLK) of 33 nM and an IC50 (LZK) of 120 nM were found for Nc1nc2cc(-c3cnn(Cc4ccccc4)c3)cc(-c3ccc(C4CC4)nc3)n2n1 [II-47, 7-(1-Benzyl-1H-pyrazol-4-yl)-5-(6-cyclopropylpyridin-3-yl)[1,2,4]triazolo[1,5-a]pyridin-2-amine] in this work.
An IC50 (DLK) of 46 nM and an IC50 (LZK) of 42 nM were found for CCC(c1ccc(OC(F)(F)F)nc1)n1cc(-c2cc(-c3cnn(CC(F)(F)F)c3)n3nc(N)nc3c2)cn1 (racemic) [II-114, 5-[1-(2,2,2-Trifluoroethyl)-1H-pyrazol-4-yl]-7-(1-{1-[6-(trifluoromethoxy)pyridin-3-yl]propyl}-1H-pyrazol-4-yl)[1,2,4]triazolo[1,5-a]pyridin-2-amine] in this work.
An IC50 (DLK) of 4 nM and an IC50 (LZK) of 2.4 nM were found for CC(C)C(c1ccc(C(F)(F)F)nc1)n1cc(-c2cc(-c3ccc(C4(O)CCC4)nc3)n3nc(N)nc3c2)cn1 (single isomer, unassigned) [II-81, 1-{5-[2-Amino-7-(1-{2-methyl-1-[6-(trifluoromethyl)pyridin-3-yl]propyl}-1H-pyrazol-4-yl)[1,2,4]triazolo[1,5-a]pyridin-5-yl]pyridin-2-yl}cyclobutan-1-ol] in this work.
An IC50 (DLK) of 1.4 nM and an IC50 (LZK) of 3.5 nM were found for Nc1nc2c(-c3ccc(=O)n(C(F)F)c3)cc(-c3cnn(C(c4ccc(C(F)(F)F)nc4)C4CCOCC4)c3)cn2n1 (stereo not drawn) [II-153] in this work.
An IC50 (DLK) of 9.4 nM and an IC50 (LZK) of 42 nM were found for CCC(c1ccc(C(F)F)nc1)n1cc(-c2cc(-c3cnn(CC(F)(F)F)c3)c3nc(N)nn3c2)cn1 (racemic) [II-105, 6-(1-{1-[6-(Difluoromethyl)pyridin-3-yl]propyl}-1H-pyrazol-4-yl)-8-[1-(2,2,2-trifluoroethyl)-1H-pyrazol-4-yl][1,2,4]triazolo[1,5-a]pyridin-2-amine] in this work.
An IC50 (DLK) of 6.5 nM and an IC50 (LZK) of 230 nM were found for CC[C@@H](c1ccccc1)n1cc(-c2cc(-c3cnn(C)c3)c3nc(N)nn3c2)cn1 [II-90, 8-(1-Methyl-1H-pyrazol-4-yl)-6-{1-[(1S)-1-phenylpropyl]-1H-pyrazol-4-yl}[1,2,4]triazolo[1,5-a]pyridin-2-amine] in this work.
An IC50 (DLK) of 17 nM and an IC50 (LZK) of 77 nM were found for Nc1nc2c(-c3cn(CC(F)(F)F)c(=O)cn3)cc(-c3cnn(C(c4ccc(C(F)(F)F)nc4)C4CCOCC4)c3)cn2n1 (single isomer, unassigned) [II-168, 5-[2-Amino-6-(1-{tetrahydro-2H-pyran-4-yl[6-(trifluoromethyl)pyridin-3-yl]methyl}-1H-pyrazol-4-yl)[1,2,4]triazolo[1,5-a]pyridin-8-yl]-1-(2,2,2-trifluoroethyl)pyrazin-2(1H)-one] in this work.
An IC50 (DLK) of 26 nM and an IC50 (LZK) of 6.1 nM were found for CCC(c1ccc(C(F)(F)F)nc1)n1cc(-c2cc(-c3ccnc(C4(F)CC4)c3)n3nc(N)nc3c2)cn1 (racemic) [II-31, 5-[2-(1-Fluorocyclopropyl)pyridin-4-yl]-7-(1-{1-[6-(trifluoromethyl)pyridin-3-yl]propyl}-1H-pyrazol-4-yl)[1,2,4]triazolo[1,5-a]pyridin-2-amine] in this work.
An IC50 (DLK) of 1.1 nM and an IC50 (LZK) of 3.3 nM were found for Nc1nc2c(-c3ccc(=O)n(CC(F)F)c3)cc(-c3cnn(C(c4ccc(C(F)(F)F)nc4)C4CCOCC4)c3)cn2n1 (stereo not drawn) [II-156] in this work.
An IC50 (DLK) of 65 nM and an IC50 (LZK) of 62 nM were found for CCC(c1ccc(C(F)F)nc1)n1cc(-c2cc(-c3ccc(C(F)(F)F)nc3)n3nc(N)nc3c2)cn1 (racemic) [II-61, 7-(1-{1-[6-(Difluoromethyl)pyridin-3-yl]propyl}-1H-pyrazol-4-yl)-5-[6-(trifluoromethyl)pyridin-3-yl][1,2,4]triazolo[1,5-a]pyridin-2-amine] in this work.
An IC50 (DLK) of 160 nM and an IC50 (LZK) of 61 nM were found for Nc1nc2cc(-c3cnn(C(c4ccc(C(F)F)nc4)C4CCOCC4)c3)cc(-c3ccc(C(F)(F)F)nc3)n2n1 (single isomer, unassigned) [II-77, 7-(1-{[6-(Difluoromethyl)pyridin-3-yl](tetrahydro-2H-pyran-4-yl)methyl}-1H-pyrazol-4-yl)-5-[6-(trifluoromethyl)pyridin-3-yl][1,2,4]triazolo[1,5-a]pyridin-2-amine] in this work.
An IC50 (DLK) of 69 nM and an IC50 (LZK) of 170 nM were found for CCC(c1ccc(C(F)(F)F)cc1)n1cc(-c2cc(-c3cnn(CC(F)(F)F)c3)n3nc(N)nc3c2)cn1 (stereo not drawn) [II-129] in this work.
An IC50 (DLK) of 15 nM and an IC50 (LZK) of 74 nM were found for CC[C@@H](c1ccccc1)n1cc(-c2cc(-c3ccc(=O)[nH]c3)n3nc(N)nc3c2)cn1 [II-178, 5-(2-Amino-7-{1-[(1S)-1-phenylpropyl]-1H-pyrazol-4-yl}[1,2,4]triazolo[1,5-a]pyridin-5-yl)pyridin-2(1H)-one] in this work.
An IC50 (DLK) of 1 nM and an IC50 (LZK) of 2.3 nM were found for CCC(c1ccc(C(F)(F)F)nc1)n1cc(-c2cc(-c3cccc(C(C)(C)O)c3)c3nc(N)nn3c2)cn1 (single isomer, unassigned) [II-9, 2-{3-[2-Amino-6-(1-{1-[6-(trifluoromethyl)pyridin-3-yl]propyl}-1H-pyrazol-4-yl)[1,2,4]triazolo[1,5-a]pyridin-8-yl]phenyl}propan-2-ol] in this work.
An IC50 (DLK) of 20 nM and an IC50 (LZK) of 60 nM were found for CCC(c1ccc(C(F)(F)F)nc1)n1cc(-c2cc(-c3ccn(C)c(=O)c3)c3nc(N)nn3c2)cn1 (stereo not drawn) [II-169] in this work.
An IC50 (DLK) of 6 nM and an IC50 (LZK) of 51 nM were found for CCC(c1ccc(N2CCOCC2)cc1)n1cc(-c2cc(-c3cnn(CC(F)(F)F)c3)c3nc(N)nn3c2)cn1 (single isomer, unassigned) [II-104, 6-(1-{1-[4-(Morpholin-4-yl)phenyl]propyl}-1H-pyrazol-4-yl)-8-[1-(2,2,2-trifluoroethyl)-1H-pyrazol-4-yl][1,2,4]triazolo[1,5-a]pyridin-2-amine] in this work.
